Our source for the MIC, HC50 and selectivity ratio values is ChEMBL document CHEMBL6092194, “Development of membrane-targeting chalcone derivatives as antibacterial agents against multidrug-resistant bacteria” (Eur J Med Chem, 2024).

One data set concerns Enterococcus faecalis. Put plainly: Antibacterial activity against vancomycin susceptible Enterococcus faecalis ATCC29212 by broth microdilution assay. The data set is classed as functional. For orientation: Broth dilution looks for growth in wells or tubes with falling amounts of substance.
A short description of data set [1]: Hemolytic activity in red blood cells (unknown origin). It counts as toxicity, cell-based, Erythrocyte.
Another data set relates to Escherichia coli. Put plainly: Antibacterial activity against penicillin-susceptible Escherichia coli ATCC25922 by broth microdilution method. The data set is classed as functional.
Data set [2] relates to Staphylococcus epidermidis. Briefly: Antibacterial activity against erythromycin-susceptible Staphylococcus epidermidis ATCC12228 by broth microdilution assay. It counts as functional.
Data set [3] concerns Staphylococcus aureus. Put plainly: Antibacterial activity against penicillin-resistant Staphylococcus aureus ATCC31007 by broth microdilution assay. It counts as functional.
The next data set has as its system Pseudomonas aeruginosa. Briefly: Antibacterial activity against penicillin-susceptible Pseudomonas aeruginosa ATCC27853 by broth microdilution method. The data set is classed as functional.
For another data set, the system named is Bacillus subtilis. Put plainly: Antibacterial activity against penicillin-susceptible Bacillus subtilis ATCC9372 by broth microdilution assay. It counts as functional.
The subject of a further data set is Acinetobacter baumannii. Briefly: Antibacterial activity against Acinetobacter baumannii ATCC19606 by broth microdilution assay. The data set is classed as functional.
The test system of data set [4] is Staphylococcus aureus. Put plainly: Antibacterial activity against erythromycin susceptible Staphylococcus aureus ATCC25923 by broth microdilution assay. It counts as functional.
Another data set relates to Klebsiella pneumoniae. Briefly: Antibacterial activity against Klebsiella pneumoniae ATCC10031 by broth microdilution assay. It counts as functional.
Data set [5] is described as follows: Selectivity index, ratio of HC50 for hemolytic activity in red blood cells (unknown origin) to MIC for antibacterial activity against penicillin-resistant Staphylococcus aureus ATCC43300. The data set is classed as toxicity, cell-based, RBC. The settings on record: read-out: Selectivity Index.
Data set [6] has as its system Staphylococcus aureus. Put plainly: Antibacterial activity against penicillin-resistant Staphylococcus aureus ATCC43300 by broth microdilution assay. The data set is classed as functional.

The term MIC denotes the lowest concentration that inhibits growth of the organism. A higher MIC goes with weaker potency. The HC50 is the concentration giving 50% haemolysis. For `CCCCCCCC(=O)Nc1cc[n+](CCCOc2ccc(C(=O)/C=C/c3ccccc3)cc2)cc1.[Br-]`, the minimum inhibitory concentration (MIC) with Enterococcus faecalis is 4 µg/mL; in the data set with Escherichia coli it was 32 µg/mL; in data set [2] it was 8 µg/mL; in the data set with Staphylococcus aureus [3], 2 µg/mL; in the data set on Pseudomonas aeruginosa it was > 128 µg/mL; against Bacillus subtilis it was 2 µg/mL. The MIC against Acinetobacter baumannii is 128 µg/mL; with Staphylococcus aureus [4], 2 µg/mL; with Klebsiella pneumoniae, 16 µg/mL; with Staphylococcus aureus [6], 2 µg/mL. In data set [1], the HC50 worked out at 887 µg/mL. Moreover, the selectivity ratio in data set [5] is 443.

Take `CCCCCCCCCC[N+](C)(C)CCCOc1ccc(C(=O)/C=C/c2ccccc2)cc1.[Br-]`: the MIC against Enterococcus faecalis was 64 µg/mL; in the data set on Escherichia coli it was > 128 µg/mL; in data set [2] it was 16 µg/mL; in the data set on Staphylococcus aureus [3], 4 µg/mL; against Pseudomonas aeruginosa it was > 128 µg/mL; in the data set with Bacillus subtilis, 8 µg/mL. Further, the MIC is > 128 µg/mL against Acinetobacter baumannii, 8 µg/mL in the data set with Staphylococcus aureus [4], 128 µg/mL in the data set on Klebsiella pneumoniae and 4 µg/mL in the data set with Staphylococcus aureus [6]. The HC50 in data set [1] was determined as 756 µg/mL. In data set [5], the selectivity ratio came out at 189.

Take `O=C(Cc1ccc(-c2ccccc2)cc1)Nc1cc[n+](CCCOc2ccc(C(=O)/C=C/c3ccccc3)cc2)cc1.[Br-]`: the MIC in the data set with Enterococcus faecalis was > 128 µg/mL; against Escherichia coli, > 128 µg/mL; in [2], > 128 µg/mL; in the data set with Staphylococcus aureus [3], 128 µg/mL; against Pseudomonas aeruginosa, > 128 µg/mL; in the data set with Bacillus subtilis, > 128 µg/mL. Besides, the MIC in the data set with Acinetobacter baumannii, in the data set with Staphylococcus aureus [4], against Klebsiella pneumoniae and in the data set on Staphylococcus aureus [6] was > 128 µg/mL throughout. Also, the 50% haemolytic concentration (HC50) in data set [1] was > 1280 µg/mL. Besides, the selectivity ratio in data set [5] is > 10.

As for `CCCCCCCCCCOc1cc[n+](CCCOc2ccc(/C=C/C(=O)c3ccc(OCCC[n+]4ccc(OCCCCCCCCCC)cc4)cc3)cc2)cc1.[Br-].[Br-]`, the MIC in the data set on Enterococcus faecalis is 128 µg/mL; in the data set on Escherichia coli, 128 µg/mL; in [2], 8 µg/mL; against Staphylococcus aureus [3], 128 µg/mL; with Pseudomonas aeruginosa, > 128 µg/mL; against Bacillus subtilis it was 128 µg/mL. Moreover, the MIC against Acinetobacter baumannii came out at 32 µg/mL; against Staphylococcus aureus [4] it was 128 µg/mL; in the data set on Klebsiella pneumoniae it was 16 µg/mL; in the data set with Staphylococcus aureus [6], 128 µg/mL. The HC50 in data set [1] was found to be 161 µg/mL. Besides, the selectivity ratio in data set [5] was determined as 1.3.

As to `CCCCCCCCCCCC[N+](C)(C)CCCCCOc1ccc(C(=O)/C=C/c2ccccc2)cc1.[Br-]`, the MIC with Enterococcus faecalis was 16 µg/mL; in the data set on Escherichia coli, > 128 µg/mL; in [2] it was 8 µg/mL; against Staphylococcus aureus [3], 16 µg/mL; with Pseudomonas aeruginosa, > 128 µg/mL; in the data set on Bacillus subtilis, 8 µg/mL. Also, the MIC in the data set with Acinetobacter baumannii is 128 µg/mL; in the data set with Staphylococcus aureus [4] it was 8 µg/mL; against Klebsiella pneumoniae it was > 128 µg/mL; against Staphylococcus aureus [6], 8 µg/mL. The molecule also registered an HC50 in [1] of 167 µg/mL. Further, the selectivity ratio in data set [5] turned out to be 20.9.

Turning to `CCCCCC[N+](C)(C)CCCCCOc1ccc(C(=O)/C=C/c2ccccc2)cc1.[Br-]`, the MIC in the data set on Enterococcus faecalis is 16 µg/mL; with Escherichia coli, > 128 µg/mL; in [2], 8 µg/mL; in the data set on Staphylococcus aureus [3], 16 µg/mL; against Pseudomonas aeruginosa it was > 128 µg/mL; against Bacillus subtilis, 8 µg/mL. The MIC against Acinetobacter baumannii is 64 µg/mL; in the data set on Staphylococcus aureus [4], 2 µg/mL; against Klebsiella pneumoniae, 32 µg/mL; against Staphylococcus aureus [6], 16 µg/mL. Besides, the HC50 in data set [1] worked out at 112 µg/mL. Further, the selectivity ratio in [5] is 7.

As to `CCCCCCCCCC[N+](C)(C)CCCCCCCOc1ccc(C(=O)/C=C/c2ccccc2)cc1.[Br-]`, the MIC was 8 µg/mL in the data set on Enterococcus faecalis; > 128 µg/mL against Escherichia coli; 4 µg/mL in [2]; 8 µg/mL against Staphylococcus aureus [3]; > 128 µg/mL against Pseudomonas aeruginosa; 4 µg/mL in the data set on Bacillus subtilis. For the same molecule, the MIC in the data set with Acinetobacter baumannii was 128 µg/mL; in the data set on Staphylococcus aureus [4], 4 µg/mL; against Klebsiella pneumoniae, 32 µg/mL; in the data set on Staphylococcus aureus [6] it was 4 µg/mL. Moreover, the HC50 in data set [1] is 50.5 µg/mL. The selectivity ratio in data set [5] was determined as 12.6.

Regarding `CCCCNC(=O)C[N+](C)(C)CCCOc1ccc(/C=C/C(=O)c2ccc(OCCC[N+](C)(C)CC(=O)NCCCC)cc2)cc1.[Br-].[Br-]`, the MIC against Enterococcus faecalis was 8 µg/mL; against Escherichia coli, 16 µg/mL; in data set [2] it was 4 µg/mL; against Staphylococcus aureus [3], 4 µg/mL; in the data set with Pseudomonas aeruginosa, > 128 µg/mL; with Bacillus subtilis, 4 µg/mL. In addition, the MIC with Acinetobacter baumannii was > 128 µg/mL; in the data set on Staphylococcus aureus [4] it was 2 µg/mL; against Klebsiella pneumoniae, 32 µg/mL; against Staphylococcus aureus [6], 8 µg/mL. Also, in data set [1], the 50% haemolytic concentration (HC50) is > 1280 µg/mL. Also, the selectivity ratio in data set [5] is > 160.

Consider `CCCC(=O)Nc1cc[n+](CCCOc2ccc(C(=O)/C=C/c3ccccc3)cc2)cc1.[Br-]`, for which the MIC (with Enterococcus faecalis; in the data set with Escherichia coli; in [2]; in the data set with Staphylococcus aureus [3]; against Pseudomonas aeruginosa; against Bacillus subtilis) was > 128 µg/mL in each case. Moreover, the MIC against Acinetobacter baumannii, in the data set on Staphylococcus aureus [4], in the data set with Klebsiella pneumoniae and against Staphylococcus aureus [6] was > 128 µg/mL each time. For the same molecule, the HC50 in data set [1] was > 1280 µg/mL. Besides, the selectivity ratio in [5] was > 10.

As to `COc1ccc(CC(=O)Nc2cc[n+](CCCOc3ccc(C(=O)/C=C/c4ccccc4)cc3)cc2)cc1.[Br-]`, the MIC against Enterococcus faecalis was 16 µg/mL; against Escherichia coli it was 128 µg/mL; in data set [2], 128 µg/mL; in the data set on Staphylococcus aureus [3], 16 µg/mL; against Pseudomonas aeruginosa, > 128 µg/mL; against Bacillus subtilis it was 16 µg/mL. The MIC is 128 µg/mL against Acinetobacter baumannii, 8 µg/mL in the data set on Staphylococcus aureus [4], 64 µg/mL in the data set with Klebsiella pneumoniae and 8 µg/mL against Staphylococcus aureus [6]. Moreover, in [1], the HC50 came out at 724 µg/mL. The selectivity ratio in data set [5] turned out to be 90.5.

For the molecule `CCCC[N+](C)(C)CCCCCCCOc1ccc(C(=O)/C=C/c2ccccc2)cc1.[Br-]`, the MIC in the data set with Enterococcus faecalis was 32 µg/mL; in the data set with Escherichia coli, > 128 µg/mL; in data set [2], 16 µg/mL; against Staphylococcus aureus [3], 16 µg/mL; in the data set with Pseudomonas aeruginosa, > 128 µg/mL; in the data set with Bacillus subtilis, 32 µg/mL. Besides, the MIC with Acinetobacter baumannii came out at 64 µg/mL; with Staphylococcus aureus [4], 8 µg/mL; in the data set on Klebsiella pneumoniae, 32 µg/mL; against Staphylococcus aureus [6], 8 µg/mL. In addition, the HC50 in data set [1] was 130 µg/mL. For the same molecule, the selectivity ratio in data set [5] is 16.3.

Consider `CCCCCCCCCCCCCC[N+](C)(C)CCCOc1ccc(C(=O)/C=C/c2ccccc2)cc1.[Br-]`, for which the MIC in the data set with Enterococcus faecalis is 32 µg/mL; in the data set on Escherichia coli, > 128 µg/mL; in data set [2] it was 16 µg/mL; with Staphylococcus aureus [3] it was 64 µg/mL; against Pseudomonas aeruginosa it was > 128 µg/mL; with Bacillus subtilis, 32 µg/mL. Moreover, the MIC against Acinetobacter baumannii came to 128 µg/mL; in the data set with Staphylococcus aureus [4], 8 µg/mL; in the data set on Klebsiella pneumoniae, 128 µg/mL; against Staphylococcus aureus [6], 32 µg/mL. For the same molecule, in data set [1], the HC50 turned out to be 39 µg/mL. In addition, in data set [5], the selectivity ratio is 9.8.

With `CCCC[N+](C)(C)CCCOc1ccc(/C=C/C(=O)c2ccc(OCCC[N+](C)(C)CCCC)cc2)cc1.[Br-].[Br-]`, the MIC was 4 µg/mL in the data set with Enterococcus faecalis; 128 µg/mL against Escherichia coli; 2 µg/mL in data set [2]; 2 µg/mL against Staphylococcus aureus [3]; > 128 µg/mL against Pseudomonas aeruginosa; 8 µg/mL against Bacillus subtilis. In addition, the MIC in the data set with Acinetobacter baumannii was > 128 µg/mL; in the data set on Staphylococcus aureus [4], 2 µg/mL; with Klebsiella pneumoniae, 128 µg/mL; against Staphylococcus aureus [6] it was 8 µg/mL. Moreover, the HC50 in [1] was determined as 590 µg/mL. The selectivity ratio in [5] amounted to 73.8.
